Data from patent US20030206898A1, “Use of anti-TNFalpha antibodies and another drug” (priority 2002, published 2003).
Values joined by “and” are separate entries in the source; they are usually repeats but may differ in a detail not shown here. Equal values may be shown once. “Also recorded” adds a separate entry of the source.

Key:
[1] = tested on: patients with rheumatoid arthritis (RA); test: Multicenter, randomized, double-blind, placebo-controlled study of D2E7 40 mg sc every other week added to current anti-rheumatic therapies: efficacy (ACR response); type: in vivo, human
Description: (§1) A study was designed and conducted to investigate the safety and efficacy of D2E7 40 mg administered every other week to patients with RA whose disease was not adequately treated with their current anti-rheumatic therapies (including accepted DMARDs, NSAIDs, or steroids); and was a multicenter, randomized, double-blind, placebo-controlled study in which D2E7 was subcutaneously (sc) administered every other week for up to 24 weeks at a dosage of 40 mg to patients with rheumatoid arthritis (RA) whose disease was not adequately treated with their current anti-rheumatic therapies. Anti-rheumatic therapies permitted for use during the study included accepted disease-modifying anti-rheumatic drugs (DMARDs), non-steroidal anti-inflammatory drugs (NSAIDs), or steroids. Despite using anti-rheumatic therapies, patients must have had active disease documented at both the screening and baseline visits. Doses of DMARDs, as well as concomitant prednisone (<10 mg daily) and NSAIDs, were required to be stable for at least 28 days prior to screening. Additionally, patients using azathioprine and/or cyclosporine discontinued these therapies and underwent a 28-day washout period before screening. At the baseline visit, patients were randomized to D2E7 or placebo and this signified the start of the 24-week placebo-controlled period. Patients were examined at Weeks 2, 4, 8, 12, 16, 20 and 24 of the study.
Patients were inadequately treated with their current anti-rheumatic therapies and had active RA, defined as ≧6 swollen joints and ≧9 tender joints. Additionally, patients using glucocorticoids were allowed into the study if the dose was equivalent to <10 mg/day prednisone and had remained unchanged for at least 28 days.
D2E7 was supplied in 2-mL glass vials (the concentration of D2E7 in each vial was 25 mg/mL (ie, 40 mg/1.6 mL)), each containing 40 mg D2E7/1.6 mL solution for injection. D2E7 was manufactured and supplied by Ebewe Arzneimittel GmbH, in Unterach, Austria. McKesson, HBOC Biosciences, in Rockville, Md., USA, packaged, labeled, stored and distributed D2E7 to the investigators at each site for this study. D2E7 was self-administered as a single sc injection of 40 mg every other week for a period of 24 weeks. The concentration of study drug was 25 mg/mL. Placebo/1.6 mL (citrate-phosphate buffer solution without D2E7) was self-administered as a single sc injection every other week for a period of 24 weeks.
Patients continued to receive their pre-study dose of anti-rheumatic therapies. Anti-rheumatic therapies permitted for use during the study included DMARDs (hydroxychloroquine, leflunomide, methotrexate, parenteral gold, oral gold and sulfasalazine, or any combination of these or other DMARDs), NSAIDs and steroids. Doses of these DMARDs as well as concomitant prednisone (<10 mg daily) and NSAIDs must have been stable for at least 28 days prior to screening.
Efficacy endpoints included: ACR20 response at Week 24; ACR50 and ACR70 at Week 24; AUC (area under the curve) of ACR20, ACR50 and ACR70 from baseline to Week 24; time to first response for ACR20, ACR50 and ACR70; numeric ACR (ACR—N); change from baseline to Week 24 in components of the ACR response criteria (tender joint count [TJC], swollen joint count [SJC], patient assessment of pain, patient and physician global assessments of disease activity, HAQ and C-reactive protein [CRP]); change from baseline to Week 24 in physical function as measured by SF-36, health utilities index (HUI), functional assessment of chronic illness therapy (FACIT) fatigue scale; Euro-QoL questionnaire; multidimensional assessment of fatigue (MAF) scale; subject summary survey; incidence and time to dose increases in background DMARD and/or steroid therapy; institution of new DMARD therapy for lack of clinical response; rheumatoid factor (RF); and morning stiffness.
Adverse events were summarized by frequency, percentage, as well as the rate per 100 patient-years. […]

[2] = tested on: patients with rheumatoid arthritis (RA); test: Same RA study: safety / adverse events; type: in vivo, human
Description: as §1, with “Additionally, patients using azathioprine and/or cyclosporine discontinued these therapies and underwent a 28-day washout period before screening. At the baseline visit, patients were randomized to D2E7 or placebo and this signified the start of the 24-week placebo-controlled period. Patients were examined at Weeks 2, 4, 8, 12, 16, 20 and 24 of the study.” left out
Adverse events were summarized by frequency, percentage, as well as the rate per 100 patient-years. […] All other efficacy variables were summarized descriptively (statistical characteristics, frequencies, percentages, confidence intervals) and analyzed by exploratory two-sided statistical tests. […]

[3] = Week 2, full analysis set, excluding Site #7
[4] = Week 4, full analysis set, excluding Site #7
[5] = Week 8, full analysis set, excluding Site #7
[6] = Week 12, full analysis set, excluding Site #7
[7] = Week 16, full analysis set, excluding Site #7
[8] = Week 20, full analysis set, excluding Site #7
[9] = Week 24, full analysis set, excluding Site #7
[10] = Week 24, subgroup Three or more DMARDs
[11] = Week 24, subgroup concomitant Antimalarial
[12] = Week 24, subgroup concomitant Leflunomide
[13] = Week 24, subgroup concomitant Methotrexate
[14] = Week 24, subgroup concomitant Sulfasalazine
[15] = through Week 24, full analysis set, excluding Site #7

For “D2E7: recombinant, neutralizing human anti-hTNFα antibody; VL region SEQ ID NO: 1, VH region SEQ ID NO: 2”, the “ACR50 response, patients responding” value ([1]; LOCF Week 24, N = 315) was 95 (30.2) N (%), the “ACR70 response, patients responding” value ([1]; LOCF Week 24, N = 315) was 48 (15.2) N (%) and the “ACR-N, Mean ± SD” value ([1]; LOCF Week 24, N = 315) was 21.2 ± 55.3. The “Time to response ACR20: patients responding for the first time” value (shortened to “Time to response ACR20 … for the first time”) [1, 3] was 106 (33.7) N (%), the “Time to response ACR50: patients responding for the first time” value (shortened to “Time to response ACR50 … for the first time”) [1, 3] was 31 (9.8) N (%) and the “Time to response ACR70: patients responding for the first time” value (shortened to “Time to response ACR70 … for the first time”) [1, 3] was 9 (2.9) N (%). For the same substance, the “Time to response ACR20 … for the first time” value [1, 4] was 51 (16.2) N (%), the “Time to response ACR50 … for the first time” value [1, 4] was 31 (9.8) N (%) and the “Time to response ACR70 … for the first time” value [1, 4] was 12 (3.8) N (%). The “Time to response ACR20 … for the first time” value [1, 5] was 52 (16.5) N (%), the “Time to response ACR50 … for the first time” value [1, 5] was 34 (10.8) N (%) and the “Time to response ACR70 … for the first time” value [1, 5] was 12 (3.8) N (%). The “Time to response ACR20 … for the first time” value [1, 6] was 17 (5.4) N (%), the “Time to response ACR50 … for the first time” value [1, 6] was 20 (6.3) N (%) and the “Time to response ACR70 … for the first time” value [1, 6] was 18 (5.7) N (%). The “Time to response ACR20 … for the first time” value [1, 7] was 13 (4.1) N (%), the “Time to response ACR50 … for the first time” value [1, 7] was 20 (6.3) N (%) and the “Time to response ACR70 … for the first time” value [1, 7] was 18 (5.7) N (%). The “Time to response ACR20 … for the first time” value [1, 8] was 12 (3.8) N (%), the “Time to response ACR50 … for the first time” value [1, 8] was 9 (2.9) N (%) and the “Time to response ACR70 … for the first time” value [1, 8] was 7 (2.2) N (%). For the same substance, the “ACR20 response, patients responding” value ([1]; Week 24, 40 mg sc every other week, N = 315) was 167 (53.0) N (%), the “ACR20 response (primary efficacy endpoint)” value ([1]; Week 24, D2E7 added to current anti-rheumatic therapies) was 53.0% and the “ACR50 response, patients responding” value ([1]; Week 24, N = 315) was 92 (29.2) N (%) and 92 (29.2)^a N (%). The “ACR70 response, patients responding” value ([1]; Week 24, N = 315) was 47 (14.9) N (%) and 47 (14.9)^a N (%), the “ACR-N, Mean ± SD” value ([1]; Week 24, N = 315) was 20.3 ± 55.2 and the “Time to response ACR20 … for the first time” value [1, 9] was 3 (1.0) N (%). For the same substance, the “Time to response ACR50 … for the first time” value [1, 9] was 10 (3.2) N (%), the “Time to response ACR70 … for the first time” value [1, 9] was 8 (2.5) N (%) and the “ACR20 % Response” value ([1]; Week 24, subgroup No DMARD) was 50.0%. The ACR50 response ([1]; Week 24, subgroup No DMARD) was 27.8%, the ACR70 response ([1]; Week 24, subgroup No DMARD) was 18.5% and the “ACR-N, Mean ± SD” value ([1]; Week 24, subgroup No DMARD) was 12.8 ± 68.2. For the same substance, the “ACR20 % Response” value ([1]; Week 24, subgroup One DMARD) was 55.4%, the ACR50 response ([1]; Week 24, subgroup One DMARD) was 31.0% and the ACR70 response ([1]; Week 24, subgroup One DMARD) was 16.3%. For the same substance, the “ACR-N, Mean ± SD” value ([1]; Week 24, subgroup One DMARD) was 22.8 ± 56.0, the “ACR20 % Response” value ([1]; Week 24, subgroup Other DMARDs) was 52.0% and the ACR50 response ([1]; Week 24, subgroup Other DMARDs) was 24.0%. For the same substance, the ACR70 response ([1]; Week 24, subgroup Other DMARDs) was 16.0%, the “ACR-N, Mean ± SD” value ([1]; Week 24, subgroup Other DMARDs) was 25.3 ± 33.9 and the “ACR20 % Response” value [1, 10] was 45.5%. For the same substance, the ACR50 response [1, 10] was 18.2%, the ACR70 response [1, 10] was 9.1% and the “ACR-N, Mean ± SD” value [1, 10] was 20.1 ± 37.2. For the same substance, the “ACR20 % Response” value ([1]; Week 24, subgroup Two DMARDs) was 50.0%, the ACR50 response ([1]; Week 24, subgroup Two DMARDs) was 27.3% and the ACR70 response ([1]; Week 24, subgroup Two DMARDs) was 9.1%. For the same substance, the “ACR-N, Mean ± SD” value ([1]; Week 24, subgroup Two DMARDs) was 19.5 ± 42.3, the “ACR20 % Response” value [1, 11] was 50.7% and the ACR50 response [1, 11] was 29.3%. The ACR70 response [1, 11] was 12.0%, the “ACR-N, Mean ± SD” value [1, 11] was 20.0 ± 45.5 and the “ACR20 % Response” value [1, 12] was 33.3%. The ACR50 response [1, 12] was 14.3%, the ACR70 response [1, 12] was 0.0% and the “ACR-N, Mean ± SD” value [1, 12] was −0.5 ± 77.5. The “ACR20 % Response” value [1, 13] was 56.7%, the ACR50 response [1, 13] was 30.9% and the ACR70 response [1, 13] was 15.2%. The “ACR-N, Mean ± SD” value [1, 13] was 26.5 ± 42.3, the “ACR20 % Response” value [1, 14] was 58.6% and the ACR50 response [1, 14] was 34.5%. For the same substance, the ACR70 response [1, 14] was 17.2%, the “ACR-N, Mean ± SD” value [1, 14] was 21.4 ± 53.9 and the “Subgroup analyses of ACR20, ACR50, ACR70, ACR-N and their AUC” value ([1]; concomitant methotrexate, antimalarials, sulfasalazine, other DMARDs, or 0, 1, 2, ≧3 DMARDs, vs placebo) was “greater improvement; also recorded: higher response compared to placebo”. For the same substance, the “Improvement in RA in patients inadequately treated with existing DMARD therapies” value ([1]; in vivo) was “significant improvement”, the “Time to response ACR20: Non-responder” value [1, 15] was 61 (19.4) N (%) and the “Time to response ACR50: Non-responder” value [1, 15] was 160 (50.8) N (%). For the same substance, the “Time to response ACR70: Non-responder” value [1, 15] was 231 (73.3) N (%), the “Time to response and AUC for ACR20, ACR50, ACR70; AUC for ACR-N; Euro-QoL, RF, MAF scale” value ([1]; vs placebo) was “improvement in therapeutic response over placebo” and the “Tolerability when added to existing DMARD therapies” value ([2]; 40 mg sc every other week, up to 24 weeks) was “generally well-tolerated”. For the same substance, the “Safety alone or in combination with other DMARDs” value ([2]; dose of 40 mg) was “safe”.
